From PubChem BioAssay AID248 (DTP/NCI, 2004)
Where “and” joins values, the source holds several entries; their conditions need not be identical. Equal entries are not always repeated. Inconclusive results and toxic doses are left out. Cut-off read from the data, not from the text of the source: active = T/C of 150% or more; inactive = T/C below 125%.

Test system: L1210 leukemia ip in BDF1 mice, survival T/C
Experiment: NCI In Vivo Anticancer Drug Screen. Data for tumor model L1210 Leukemia (intraperitoneal) in B6D2F1 (BDF1) mice
Conditions: endpoint: mean survival time, higher = longer survival
Procedure, shortened: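 Transplantable tumor model; survival measured in treated vs vehicle control mice. Value = treated/control.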

[1] = dose: 100.0 mg/kg/injection, schedule: Q01DX009 (ip), vehicle: saline with Tween-80
[2] = dose: 100.0 mg/kg/injection, schedule: Q01DX001 (ip), vehicle: saline
[3] = dose: 200.0 mg/kg/injection, schedule: Q01DX001 (ip), vehicle: saline
[4] = dose: 400.0 mg/kg/injection, schedule: Q01DX001 (ip), vehicle: saline
[5] = dose: 50.0 mg/kg/injection, schedule: Q01DX001 (ip), vehicle: saline
[6] = dose: 100.0 mg/kg/injection, schedule: Q01DX009 (ip), vehicle: Klucel (hydroxypropylcellulose) (HPC)
[7] = dose: 200.0 mg/kg/injection, schedule: Q01DX009 (ip), vehicle: Klucel (hydroxypropylcellulose) (HPC)

Measured: T/C

CC12CCC(F)(CC1)CC2=O
inactive: dose: 100.0 mg/kg/injection, schedule: Q04DX002 (ip), vehicle: saline 98 % of control | dose: 200.0 mg/kg/injection, schedule: Q04DX002 (ip), vehicle: saline 98 % of control | dose: 400.0 mg/kg/injection, schedule: Q04DX002 (ip), vehicle: saline 102 % of control

CCC(C)C(CCCN1CCCCC1)(CNC(=O)CN(CC)CC)c1cccc2ccccc12 (centres undefined)
inactive: dose: 25.0 mg/kg/injection, schedule: Q01DX009 (ip), vehicle: saline 96 % of control | dose: 50.0 mg/kg/injection, schedule: Q01DX009 (ip), vehicle: saline 100 % of control | dose: 100.0 mg/kg/injection, schedule: Q01DX009 (ip), vehicle: saline 103 % of control | dose: 100.0 mg/kg/injection, schedule: Q04DX003 (ip), vehicle: saline 103 % of control

CCCCCC1SC1CC1SC1CCCCCCCC(=O)N1CCOCC1 (centres undefined)
inactive: [1] 98 % of control

O=P(Nc1ccccc1)(Nc1ccccc1)Nc1ccccc1
inactive: dose: 50.0 mg/kg/injection, schedule: Q04DX002 (ip), vehicle: gum acacia 95 % of control | dose: 100.0 mg/kg/injection, schedule: Q01DX009 (ip), vehicle: gum acacia 100 % of control | dose: 100.0 mg/kg/injection, schedule: Q04DX002 (ip), vehicle: gum acacia 95 % of control | dose: 200.0 mg/kg/injection, schedule: Q01DX009 (ip), vehicle: gum acacia 97 % of control | dose: 200.0 mg/kg/injection, schedule: Q04DX002 (ip), vehicle: gum acacia 92 % of control | dose: 400.0 mg/kg/injection, schedule: Q01DX009 (ip), vehicle: gum acacia 89 % of control

CCOC(=O)NC(C)(CC)c1ccccc1 (centres undefined)
inactive: dose: 100.0 mg/kg/injection, schedule: Q01DX001 (ip), vehicle: other 105 % of control | dose: 200.0 mg/kg/injection, schedule: Q01DX001 (ip), vehicle: other 109 % of control | dose: 400.0 mg/kg/injection, schedule: Q01DX001 (ip), vehicle: other 117 % of control

COCCOCC(=O)O
inactive: dose: 100.0 mg/kg/injection, schedule: Q04DX002 (ip), vehicle: saline with Tween-80 101 % of control | dose: 200.0 mg/kg/injection, schedule: Q04DX002 (ip), vehicle: saline with Tween-80 96 % of control | dose: 400.0 mg/kg/injection, schedule: Q04DX002 (ip), vehicle: saline with Tween-80 108 % of control

C=C/C=C/CC=C
inactive: [2] 107 % of control | [3] 107 % of control | [4] 109 % of control

Cc1ccn2c(=O)cc(O)nc2c1
inactive: [5] 101 % of control | [2] 98 % of control | [3] 92 % of control | [4] 98 % of control

O=c1ccc2nc3ccccc3sc-2c1
inactive: dose: 100.0 mg/kg/injection, schedule: Q04DX003 (ip), vehicle: saline with Tween-80 89 % of control

CCCCCCCCC(Br)C(Br)CCCCCCCC(=O)O (centres undefined)
inactive: dose: 25.0 mg/kg/injection, schedule: Q04DX002 (ip), vehicle: saline with Tween-80 93 % of control | dose: 50.0 mg/kg/injection, schedule: Q04DX002 (ip), vehicle: saline with Tween-80 96 % of control

CCCCCCCCC(=O)NCCCOC
inactive: [6] 108 % of control | dose: 100.0 mg/kg/injection, schedule: Q04DX003 (ip), vehicle: Klucel (hydroxypropylcellulose) (HPC) 96 % of control | [7] 111 % of control | dose: 200.0 mg/kg/injection, schedule: Q04DX003 (ip), vehicle: Klucel (hydroxypropylcellulose) (HPC) 91 % of control | dose: 400.0 mg/kg/injection, schedule: Q01DX009 (ip), vehicle: Klucel (hydroxypropylcellulose) (HPC) 97 % of control | dose: 400.0 mg/kg/injection, schedule: Q04DX003 (ip), vehicle: Klucel (hydroxypropylcellulose) (HPC) 91 % of control

NC(=O)c1ccc(NC(=O)/C=C/C(=O)Nc2ccc(C(N)=O)cn2)nc1
inactive: dose: 1.0 mg/kg/injection, schedule: Q01DX001 (ip), vehicle: saline 100 % of control | dose: 1.0 mg/kg/injection, schedule: Q01DX Z (ip), vehicle: saline 101 % of control and 105 % of control and 113 % of control | dose: 2.0 mg/kg/injection, schedule: Q01DX001 (ip), vehicle: saline 100 % of control | dose: 2.0 mg/kg/injection, schedule: Q01DX Z (ip), vehicle: saline 87 % of control | dose: 4.0 mg/kg/injection, schedule: Q01DX001 (ip), vehicle: saline 100 % of control | dose: 4.0 mg/kg/injection, schedule: Q01DX Z (ip), vehicle: saline 99 % of control | dose: 5.0 mg/kg/injection, schedule: Q01DX001 (ip), vehicle: saline 107 % of control | dose: 5.0 mg/kg/injection, schedule: Q04DX003 (ip), vehicle: saline 107 % of control | dose: 8.0 mg/kg/injection, schedule: Q01DX001 (ip), vehicle: saline 102 % of control | dose: 8.0 mg/kg/injection, schedule: Q01DX Z (ip), vehicle: saline 107 % of control and 91 % of control | dose: 10.0 mg/kg/injection, schedule: Q01DX001 (ip), vehicle: saline 98 % of control | dose: 11.25 mg/kg/injection, schedule: Q01DX009 (ip), vehicle: saline 93 % of control | dose: 13.0 mg/kg/injection, schedule: Q04DX003 (ip), vehicle: acetone 104 % of control | dose: 13.0 mg/kg/injection, schedule: Q04DX003 (ip), vehicle: saline 109 % of control | dose: 20.0 mg/kg/injection, schedule: Q01DX001 (ip), vehicle: saline 104 % of control | dose: 20.0 mg/kg/injection, schedule: Q04DX003 (ip), vehicle: acetone 109 % of control | dose: 20.0 mg/kg/injection, schedule: Q04DX003 (ip), vehicle: saline 109 % of control | dose: 30.0 mg/kg/injection, schedule: Q04DX003 (ip), vehicle: acetone 98 % of control | dose: 30.0 mg/kg/injection, schedule: Q04DX003 (ip), vehicle: saline 109 % of control | dose: 45.0 mg/kg/injection, schedule: Q04DX003 (ip), vehicle: saline 88 % of control

CCN(CC)CCC#N
inactive: [5] 94 % of control | [2] 94 % of control | [3] 100 % of control

C=CC(=O)NC(=O)/C=C/c1cccnc1
inactive: dose: 100.0 mg/kg/injection, schedule: Q04DX002 (ip), vehicle: Klucel (hydroxypropylcellulose) (HPC) 117 % of control | dose: 200.0 mg/kg/injection, schedule: Q04DX002 (ip), vehicle: Klucel (hydroxypropylcellulose) (HPC) 106 % of control | dose: 400.0 mg/kg/injection, schedule: Q04DX002 (ip), vehicle: Klucel (hydroxypropylcellulose) (HPC) 120 % of control

CC(=O)Nc1cc(Cl)c(Cl)c([N+](=O)[O-])c1
inactive: [6] 100 % of control | [7] 97 % of control

Cc1ccc(C(=O)CCN2CCOCC2)c(C)c1
inactive: [2] 102 % of control | [3] 96 % of control | [4] 96 % of control

OCCNCc1ccccc1
inactive: [1] 93 % of control | dose: 100.0 mg/kg/injection, schedule: Q01DX009 (ip), vehicle: water 95 % of control | dose: 100.0 mg/kg/injection, schedule: Q04DX003 (ip), vehicle: water 104 % of control | dose: 200.0 mg/kg/injection, schedule: Q01DX009 (ip), vehicle: saline with Tween-80 102 % of control | dose: 200.0 mg/kg/injection, schedule: Q01DX009 (ip), vehicle: water 103 % of control | dose: 200.0 mg/kg/injection, schedule: Q04DX003 (ip), vehicle: water 102 % of control | dose: 400.0 mg/kg/injection, schedule: Q01DX009 (ip), vehicle: saline with Tween-80 86 % of control | dose: 400.0 mg/kg/injection, schedule: Q01DX009 (ip), vehicle: water 105 % of control | dose: 400.0 mg/kg/injection, schedule: Q04DX003 (ip), vehicle: water 102 % of control

CCCCCCCC(Cc1ccccc1)C(N)=O (centres undefined)
inactive: [2] 97 % of control | [3] 92 % of control | [4] 92 % of control
